Measured values: patent US20040186113A1, “Heterocyclic amines for the treatment of conditions associated with gsk-3” (priority 2001, published 2004)

Structure (SMILES) | melting point [°C]
Nc1ncc(-c2ccc(F)c(F)c2)nc1C(=O)Nc1cccnc1 [Example 15, 3-Amino-6-(3,4-difluorophenyl)-N-pyridin-3-ylpyrazine-2-carboxamide] | 232 to 234
Nc1ncc(-c2cccc(Cl)c2Cl)nc1C(=O)Nc1cccnc1 [Example 12, 3-Amino-6-(2,3-dichlorophenyl)-N-pyridin-3-ylpyrazine-2-carboxamide] | 239 to 241
Nc1ncc(-c2cccs2)nc1C(=O)Nc1cccnc1 [Example 6, 3-Amino-6-(2-thienyl)-N-pyridin-3-ylpyrazine-2-carboxamide] | 178 to 189
Nc1ncc(-c2ccc(F)cc2)nc1C(=O)Nc1cccnc1 [Example 10, 3-Amino-6-(4-fluorophenyl)-N-pyridin-3-ylpyrazine-2-carboxamide] | 193 to 197
Nc1ncc(-c2ccc(F)cc2F)nc1C(=O)Nc1cccnc1 [Example 14, 3-Amino-6-(2,4-difluorophenyl)-N-pyridin-3-ylpyrazine-2-carboxamide] | 232 to 234

Next, values leading:

melting point [°C] | Structure (SMILES)
236 to 238.5 | Nc1ncc(-c2ccc(F)c(Cl)c2)nc1C(=O)Nc1cccnc1 [Example 16, 3-Amino-6-(3-chloro-4-fluorophenyl)-N-pyridin-3-ylpyrazine-2-carboxamide]
234.5 to 238 | Nc1ncc(-c2cccc(F)c2)nc1C(=O)Nc1cccnc1 [Example 19, 3-Amino-6-(3-fluorophenyl)-N-pyridin-3-ylpyrazine-2-carboxamide]
178 to 182 | Cc1ccc(-c2cnc(N)c(C(=O)Nc3cccnc3)n2)cc1C [Example 18, 3-Amino-6-(3,4-dimethylphenyl)-N-pyridin-3-ylpyrazine-2-carboxamide]
186 to 189 | Cc1cc(-c2cnc(N)c(C(=O)Nc3cccnc3)n2)ccc1F [Example 17, 3-Amino-6-[4-fluoro-3-methylphenyl]-N-pyridin-3-ylpyrazine-2-carboxamide]
221 to 225 | Nc1ncc(-c2ccccc2F)nc1C(=O)Nc1cccnc1 [Example 20, 3-Amino-6-(2-fluorophenyl)-N-pyridin-3-ylpyrazine-2-carboxamide]
